Data taken from patent US20250154144A1 (CHILDREN'S HOSPITAL MEDICAL CENTER, priority 2021, published 2025).
Where two headings read alike, the source gives them in different places.

Key:
MOLM14(D835Y) cells = format: cell-based
THP1 cells = experiment: Combination drug screening, Cell Titer Glo, 10 × 10 matrix, THP1 cells; format: cell-based
[1] = starting conc. 100 nM, with (+)-BAY-1251152 starting conc. 1000 nM
[2] = starting conc. 100 nM, with Azacitidine (5-Azacytidine) starting conc. 20000 nM
[3] = starting conc. 100 nM, with Palbociclib starting conc. 10000 nM
[4] = starting conc. 100 nM, with Prednisolone starting conc. 10000 nM
[5] = starting conc. 100 nM, with TNO-155 starting conc. 10000 nM
[6] = starting conc. 100 nM, with Venetoclax (ABT-199) starting conc. 2000 nM
[7] = starting conc. 100 nM, with Venetoclax (ABT-199) starting conc. 20000 nM
[8] = starting conc. 20000 nM, with (+)-BAY-1251152 starting conc. 1000 nM
[9] = starting conc. 20000 nM, with Azacitidine (5-Azacytidine) starting conc. 20000 nM
[10] = starting conc. 20000 nM, with Palbociclib starting conc. 10000 nM
[11] = starting conc. 20000 nM, with Prednisolone starting conc. 10000 nM
[12] = starting conc. 20000 nM, with TNO-155 starting conc. 10000 nM
[13] = starting conc. 20000 nM, with Venetoclax (ABT-199) starting conc. 2000 nM
[14] = starting conc. 20000 nM, with Venetoclax (ABT-199) starting conc. 20000 nM

Structure (SMILES): COc1cc2ncc(-c3ccnc(N[C@@H]4CCCNC4)n3)n2nc1C1CC1 [Compound 50, (R)-4-(6-cyclopropyl-7-methoxyimidazo[1,2-b]pyridazin-3-yl)-N-(piperidin-3-yl)pyrimidin-2-amine]
- Excess HSA Score (MOLM14(D835Y) cells; MOLM14(D835Y) cells, 10 × 10, combination with (+)-BAY-1251152): −552.5
- Excess HSA Score (MOLM14(D835Y) cells; MOLM14(D835Y) cells, 10 × 10, combination with AMG-232): −129.9
- Excess HSA Score (MOLM14(D835Y) cells; MOLM14(D835Y) cells, 10 × 10, combination with AZD-5363): 12.5
- Excess HSA Score (MOLM14(D835Y) cells; MOLM14(D835Y) cells, 10 × 10, combination with Eprenetapopt/APR-246): −99.03
- Excess HSA Score (MOLM14(D835Y) cells; MOLM14(D835Y) cells, 10 × 10, combination with Ivosidenib): 219
- Excess HSA Score (MOLM14(D835Y) cells; MOLM14(D835Y) cells, 10 × 10, combination with Lenalidomide): 555
- Excess HSA Score (MOLM14(D835Y) cells; MOLM14(D835Y) cells, 10 × 10, combination with Palbociclib): −528.5
- Excess HSA Score (MOLM14(D835Y) cells; MOLM14(D835Y) cells, 10 × 10, combination with Prednisolone): 196.6
- Excess HSA Score (MOLM14(D835Y) cells; MOLM14(D835Y) cells, 10 × 10, combination with SNDX-5613): −229.3
- Excess HSA Score (MOLM14(D835Y) cells; MOLM14(D835Y) cells, 10 × 10, combination with TNO-155): −1021
- Excess HSA Score (MOLM14(D835Y) cells; MOLM14(D835Y) cells, 10 × 10, combination with Trametinib): −342.3
- Excess HSA Score (MOLM14(D835Y) cells; MOLM14(D835Y) cells, 10 × 10, combination with Ulixertinib): 149.4
- Excess HSA Score (MOLM14(D835Y) cells; MOLM14(D835Y) cells, 10 × 10, combination with Venetoclax (ABT-199)): −1391
- Comments (MOLM14(D835Y) cells; MOLM14(D835Y) cells, combination with AZD-5363): Antagonistic
- Comments (MOLM14(D835Y) cells; MOLM14(D835Y) cells, combination with Venetoclax (ABT-199)): Synergistic
- Comments (MOLM14(D835Y) cells; [1]): Synergistic
- Excess HSA Score (MOLM14(D835Y) cells; [1]): −317.9
- Excess HSA Score (MOLM14(D835Y) cells; [2]): −579.8
- Excess HSA Score (MOLM14(D835Y) cells; [3]): −1019
- Excess HSA Score (MOLM14(D835Y) cells; [4]): 9.258
- Comments (MOLM14(D835Y) cells; [5]): Synergistic
- Excess HSA Score (MOLM14(D835Y) cells; [5]): −1043.6684
- Comments (MOLM14(D835Y) cells; [6]): Synergistic;
- Excess HSA Score (MOLM14(D835Y) cells; [6]): −1372
- Comments (MOLM14(D835Y) cells; [7]): Synergistic;
- Excess HSA Score (MOLM14(D835Y) cells; [7]): −83.83
- Comments (MOLM14(D835Y) cells; [8]): Antagonistic
- Excess HSA Score (MOLM14(D835Y) cells; [8]): 67.99
- Excess HSA Score (MOLM14(D835Y) cells; [9]): −56.9
- Excess HSA Score (MOLM14(D835Y) cells; [10]): −31.37
- Excess HSA Score (MOLM14(D835Y) cells; [11]): 121.2
- Comments (MOLM14(D835Y) cells; [12]): Additive
- Excess HSA Score (MOLM14(D835Y) cells; [12]): −2.487
- Comments (MOLM14(D835Y) cells; [13]): Synergistic;
- Excess HSA Score (MOLM14(D835Y) cells; [13]): −1026
- Comments (MOLM14(D835Y) cells; [14]): Synergistic;
- Excess HSA Score (MOLM14(D835Y) cells; [14]): −74.01
- Excess HSA Score (THP1 cells; THP1 cells, 10 × 10, combination with (+)-BAY-1251152): −396.5
- Excess HSA Score (THP1 cells; THP1 cells, 10 × 10, combination with AMG-232): 252
- Excess HSA Score (THP1 cells; THP1 cells, 10 × 10, combination with AZD-5363): −475
- Excess HSA Score (THP1 cells; THP1 cells, 10 × 10, combination with Eprenetapopt/APR-246): −218.2
- Excess HSA Score (THP1 cells; THP1 cells, 10 × 10, combination with Ivosidenib): −149.8
- Excess HSA Score (THP1 cells; THP1 cells, 10 × 10, combination with Lenalidomide): 333.7
- Excess HSA Score (THP1 cells; THP1 cells, 10 × 10, combination with Palbociclib): −273.2
- Excess HSA Score (THP1 cells; THP1 cells, 10 × 10, combination with Prednisolone): −429.3
- Excess HSA Score (THP1 cells; THP1 cells, 10 × 10, combination with SNDX-5613): −9.013
- Excess HSA Score (THP1 cells; THP1 cells, 10 × 10, combination with TNO-155): 306.2
- Excess HSA Score (THP1 cells; THP1 cells, 10 × 10, combination with Trametinib): −475.4
- Excess HSA Score (THP1 cells; THP1 cells, 10 × 10, combination with Ulixertinib): −358.5769
- Excess HSA Score (THP1 cells; THP1 cells, 10 × 10, combination with Venetoclax (ABT-199)): −2869
- Comments (THP1 cells; THP1 cells, combination with AMG-232): Antagonistic
- Comments (THP1 cells; THP1 cells, combination with Venetoclax (ABT-199)): Synergistic
- Comments (THP1 cells; [1]): Synergistic at both
- Excess HSA Score (THP1 cells; [1]): −408.4
- Comments (THP1 cells; [2]): Synergistic at both
- Excess HSA Score (THP1 cells; [2]): −164.8
- Comments (THP1 cells; [3]): Antagonistic over
- Excess HSA Score (THP1 cells; [3]): 19.42
- Comments (THP1 cells; [4]): Antagonistic at both
- Excess HSA Score (THP1 cells; [4]): 76.0598
- Excess HSA Score (THP1 cells; [5]): 0.06789
- Comments (THP1 cells; [6]): Synergistic; Optimal
- Excess HSA Score (THP1 cells; [6]): −911.4
- Comments (THP1 cells; [7]): Synergistic; Optimal
- Excess HSA Score (THP1 cells; [7]): −1400
- Comments (THP1 cells; [8]): Synergistic at both
- Excess HSA Score (THP1 cells; [8]): −293.4
- Comments (THP1 cells; [9]): Synergistic at both
- Excess HSA Score (THP1 cells; [9]): −347.5
- Excess HSA Score (THP1 cells; [10]): −482.7
- Comments (THP1 cells; [11]): Antagonistic at both
- Excess HSA Score (THP1 cells; [11]): 541.6925
- Comments (THP1 cells; [12]): Antagonistic
- Excess HSA Score (THP1 cells; [12]): 230.5
- Comments (THP1 cells; [13]): Synergistic; Optimal
- Excess HSA Score (THP1 cells; [13]): −27.96
- Comments (THP1 cells; [14]): Synergistic; Optimal
- Excess HSA Score (THP1 cells; [14]): −1808
